In US5536848A, “Bioactive acetogenins and derivatives” (Purdue Research Foundation, priority 1994, dated 1996):
≈ marks a conversion by molar mass, not a printed value. Entries after “also recorded” stand apart in the source; their conditions may differ. Like-named read-outs stand apart in the source and are kept apart here.

Assays:
[1] = tested on: brine shrimp (Artemia salina Leach); test: Brine shrimp lethality test (BST); type: in vivo; conditions: for LC50: Artemia salina, read-out: BST LC50
Protocol: (§1) The brine shrimp (Artemia salina Leach) test (BST) was performed as modified to determine LC50 values in μg/ml. Seven-day in vitro cytotoxicity tests against human tumor cell lines were carried out at the Purdue Cancer Center, using standard protocols for A-549 (human lung carcinoma), MCF-7 (human breast carcinoma) and HT-29 (human colon carcinoma) with adriamycin as a positive control. The reported ED50 values in μg/ml (Table 5) were tabulated from the same run in order to facilitate comparison for the SAR's.
(§2) Bioassays. The brine shrimp (Artemia salina Leach) test (BST) was performed as modified. Zhao et al., Phytochemistry, 33, p. 1065 (1993). Seven-day in vitro cytotoxicity tests against human tumor cell lines were carried out at the Purdue Cancer Center, using standard protocols for A-549 (human lung carcinoma), Gu, Z. M.; Fang, X.-P.; Miesbauer, L. R., Smith, D. L.; and McLaughlin, J. L., 30, 31, and 32-Hydroxybullatacinones: Bioactive Terminally-Hydroxylated Annonaceous Acetogenins from Annona bullata., J. Nat. Prod., 1993, 56, 870-876; MCF-7 (human breast carcinoma) McLaughlin, J. L., Chang, C.-J., and Smith, D. L., Simple Bench-Top Bioassays (Brine Shrimp and Potato Discs) for the Discoveries of Plant Antitumor Compounds: A Review of Recent Progress. In Kinghorn, A. D., Balandrin, J. (Eds): "Human Medicinal Agents from Plants", ACS Symposium Series, Washington, D.C., American Chemical Society, 1993, pp. 112-137; and HT-29 (human colon carcinoma), Mclaughlin, J.L., Chang, C.-J., Smith, D.L., "'Bench-Top' Bioassays for the Discovery of Bioactive Natural Products: An Update", in Rahman, Atta-ur- (Ed): "Studies in Natural Product Chemistry", Vol. 9, Amsterdam, Elsevier, 1991, pp. 383-409, with adriamycin as a positive control. The reported values (Table IV) were tabulated from the same run in order to facilitate comparison for the SAR's.
(§3) Bioassay. The extracts, fractions, and isolates were routinely evaluated for lethality to brine shrimp larvae (BST). Cytotoxicities against human solid tumor cells were measured at the Purdue Cell Culture Laboratory, Purdue Cancer Center, for the A-549 lung carcinoma, MCF-7 breast carcinoma, and HT-29 colon adenocarcinoma.
(§4) The brine shrimp lethality test (BST), on newly hatched naupleii, was performed in our laboratory as previously described. McLaughlin, Methods in Plant Biochemistry, Vol. 6, Hostettmann, Academic Press, London, pp. 1-33 (1991). Seven day cytotoxicities against human solid tumor cells were measured at the Cell Culture Laboratory, Purdue Cancer Center, for the A-549 lung carcinoma, MCF-7 breast carcinoma, and HT-29 colon adenocarcinoma. The respiratory functions of rat liver mitochondria (RMB) were measured polarographically by determination of their rates of oxygen consumption after the addition of acetogenins or their derivatives.

rat liver mitochondria = test: Rat mitochondrial bioassay (RMB), inhibition of oxygen uptake; type: biochemical; conditions: for RMB IC50: Table 17, oxygen consumption of rat liver mitochondria, parent and acetal derivative in the same run
Protocol: as §4
The oxidative phosphorylation pathway (or electron transport chain) is responsible for oxidizing NADH to NAD^+ and producing ATP from ADP and phosphate within the mitochondria. There are five enzyme complexes in this pathway: NADH-ubiquinone reductase (complex I), succinate-ubiquinone reductase (complex II), ubiquinone-cytochrome c reductase (complex III), cytochrome c oxidase (complex IV) and the F0 F1 -ATPase complex (complex V). The end point of the oxidative phosphorylation pathway is the reduction of oxygen (O2) to water in the mitochondria (thus, it is also called respiration), coupled with the synthesis of ATP by complex V. State 4 respiration is the oxidation of substrates in the absence of a phosphate acceptor (e.g., ADP). State 3 respiration occurs when a phosphate acceptor is present and oxygen utilization increases. The ratio of State 3 respiration to State 4 respiration is the respiratory control ratio (RCR).
The process of respiration can be measured by using an oxygen electrode to detect the amount of oxygen present in the assay cell. If respiration is occurring normally, the concentration of oxygen should slowly decrease as it is reduced to water. However, if there is some type of inhibition of oxidative phosphorylation occurring, the oxygen level will no longer decrease at the same rate. This rate of oxygen usage can be visualized by a chart recorder connected to the oxygen electrode. At normal respiration,a decreasing baseline slope will be established. During inhibition, however, the baseline slope should decrease (i.e., the slope will move closer to zero), since the oxygen present is no longer being reduced. In other words, the oxygen concentration in the assay cell is no longer decreasing at the same rate as in normal respiration. Furthermore, inhibition sites at specific complexes can be determined by competitive inhibition studies. This is accomplished by addition of a known inhibitor of, e.g., complex I, followed by the new respiration-inhibiting compound. […] This can be verified by trying inhibitors at other sites and by reversing the order, i.e., adding the new compound and then the known inhibitor.
The method for isolating rat liver mitochondria essentially followed the published methodology. Ahammadsahib et al., Life Sciences, 53, pgs. 1113-1120 (1993). The isolation buffer used for the isolation of mitochondria from rat liver consisted of 4 mM Tris-HC1, 0.5 mM EDTA, and 250 mM sucrose at a pH of 7.4. The isolation buffer was kept at refrigeration temperature at all times by storing on ice during the whole procedure. The rats were supplied by Sprague-Dawley, were male, and weighed approximately 300-320 grams. They were sacrificed with carbon dioxide, and the livers were removed and immediately placed in the isolation buffer on ice. The livers were then rinsed with several washings of cold buffer, cut into pieces, and homogenized. The homogenates were then centrifuged (Sorvall Superspeed RC2-B, 4° C) for 10 minutes at approximately 2000 rpms; the supernatant was next centrifuged for 20 minutes at approximately 9000 rpms. The pellet was reserved and resuspended in 2 ml of assay buffer with a glass pipet. The assay buffer consisted of 100 mM KC1, 5 mM KH2 PO4, 1 mM EDTA, 5 mM glutamate, 1 mM malate, and 20 mM Tris-HCl at a pH of 7.4 and was stored at room temperature. […]

[2] = tested on: A-549 (human lung carcinoma); test: Seven-day in vitro cytotoxicity, A-549; type: cell-based; conditions: A549, 168 h
Protocol: as §1, §2, §3, §4

[3] = tested on: MCF-7 (human breast carcinoma); test: Seven-day in vitro cytotoxicity, MCF-7; type: cell-based; conditions: MCF7, 168 h
Protocol: as §1, §2, §3, §4

[4] = Table 17, seven day cytotoxicity, same run, read-out: A-549 ED50
[5] = Table 17, seven day cytotoxicity, same run, read-out: MCF-7 ED50
[6] = read-out: MCF-7 ED50, Table 17, seven day cytotoxicity, same run
[7] = read-out: MCF-7 LC50, Table 12, same run

Compound | LC50 ([1]; Table 17, same run) [ng/mL] | IC50 [3, 5] [ng/mL] | RMB IC50 (rat liver mitochondria) [n moles/Lt/mg protein] | also measured
CCCCC(O)CCCCCC(O)C1CCC(C2CCC(C(O)CCCCCCCCCCCCC3=CC(C)OC3=O)O2)O1 (centres unmarked) [Compound 2] | – | – | – | LC50 ([1]; Table 5, brine shrimp larvae): 6 ng/mL (≈ 9.63 nM); mitochondrial inhibition (rat liver mitochondria; rat liver mitochondria, result in words, listed as bullanin (2)): high activity; also recorded: slightly higher potencies than bullatacin
CCCCCCCCCCC(O)C1CCC(C2CCC(C(O)CCCCC(O)CCCCCCCC3=CC(C)OC3=O)O2)O1 (centres unmarked) [Compound 3, Asimin] | – | – | – | BST LC50 ([1]; Table 5, brine shrimp larvae): 4.6 ng/mL
CCCCCCC(O)CCCC(O)C1CCC(C2CCC(C(O)CCCCCCCCCCCCC3=CC(C)OC3=O)O2)O1 (centres unmarked) [Compound 4, Asiminacin] | – | – | – | LC50 ([1]; Table 5, brine shrimp larvae): 5.7 ng/mL (≈ 9.15 nM)
CCCCCC(O)CCCCC(O)C1CCC(C2CCC(C(O)CCCCCCCCCCCCC3=CC(C)OC3=O)O2)O1 (centres unmarked) [Compound 5, Asiminecin] | – | – | – | LC50 ([1]; Table 5, brine shrimp larvae): 4.9 ng/mL (≈ 7.87 nM); IC50 ([2]; read-out: A-549 LC50): 0.000329 ng/mL (≈ 0.000528 nM)
CCCCCCCCCCCCCC[C@@H](O)[C@H]1CC[C@H]([C@H](O)CC[C@H](O)CCCCC[C@@H](O)CC2=C[C@H](C)OC2=O)O1 [Compound 8, Goniothalamicin, reference compound] | 37000 (≈ 62000 nM) | 0.00573 (≈ 0.0096 nM) | 554.8 | IC50 [2, 4]: 0.00711 ng/mL (≈ 0.0119 nM)
CCCCCCCCCCCCCC[C@@H](O)[C@H](O)CC[C@H](O)[C@@H]1CC[C@@H](CCCCC[C@@H](O)CC2=C[C@H](C)OC2=O)O1 [Compound 10, Gigantetrocin A, reference compound] | 600 (≈ 1010 nM) | 0.355 (≈ 0.595 nM) | 287.1 | IC50 [2, 4]: 4.52e-05 ng/mL (≈ 7.57e-05 nM)
CCCCCCCCCCCCCC[C@@H](O)[C@H]1CC[C@@H]([C@@H]2CC[C@@H](CCCCC[C@@H](O)CC3=C[C@H](C)OC3=O)O2)OCO1 [Compound 11, 14,17-formaldehyde acetal derivative] | – | – | – | IC50 ([2]; read-out: A-549 ED50): 0.798 ng/mL (≈ 1.31 nM); IC50 [3, 6]: 461 ng/mL (≈ 757 nM)
CCCCCC[C@H](O)CCC[C@H](O)[C@H]1CC[C@H]([C@H](O)CC[C@H](O)[C@@H]2CC[C@@H](CCCCCCCCCC3=C[C@H](C)OC3=O)O2)O1 [Compound 13, Squamostatin A, reference compound] | 2800 (≈ 4380 nM) | – | – | IC50 ([2]; read-out: A-549 ED50): 0.268 ng/mL (≈ 0.419 nM); IC50 [3, 6]: 0.072 ng/mL (≈ 0.113 nM)
CCCCCC[C@H](O)CCC[C@H](O)[C@H]1CC[C@H]([C@H]2CC[C@@H]([C@@H]3CC[C@@H](CCCCCCCCCC4=C[C@H](C)OC4=O)O3)OCO2)O1 [Compound 15, 16,19-mono-formaldehyde acetal derivative] | 7 (≈ 10.8 nM) | 1090 (≈ 1670 nM) | – | –
CCCCCC[C@H](O)CCC[C@H](O)[C@H]1CC[C@H]([C@H]2CC[C@H]([C@H](O)CCCCCCCCCCCCC3=C[C@H](C)OC3=O)O2)O1 [Compound 16, Squamocin, reference compound] | 20 (≈ 32.1 nM) | – | 21.5 | IC50 [3, 6]: 30.3 ng/mL (≈ 48.6 nM)
CCCCCC[C@H]1CCC[C@@H](C2CCC(C3CCC(C(O)CCCCCCCCCCCCC4=CC(C)OC4=O)O3)O2)OCO1 (some centres unmarked) [Compound 17, 24,28-formaldehyde acetal derivative of squamocin] | 4.4 (≈ 6.93 nM) | 695 (≈ 1090 nM) | 421.1 | –
CCCCCCCCCC[C@H](O)[C@H]1CC[C@H]([C@H]2CC[C@@H]([C@@H]3CC[C@@H](CCCCCCC[C@@H](O)CC4=C[C@H](C)OC4=O)O3)OCO2)O1 [Compound 19, 16,19-Formaldehyde acetal derivative of bullatalicin] | 49 (≈ 75.3 nM) | 18.5 (≈ 28.4 nM) | 29.8 | –
CCCCCCCCCC[C@@H](O)[C@H]1CC[C@H]([C@H](O)CC[C@H](O)[C@@H]2CC[C@@H](CCCCCCC[C@@H](O)CC3=C[C@H](C)OC3=O)O2)O1 [Compound 20, Bullatanocin, reference compound] | 430 (≈ 673 nM) | 24.2 (≈ 37.9 nM) | 50.7 | –
CCCCCCCCCC[C@@H](O)[C@H]1CC[C@H]([C@H]2CC[C@@H]([C@@H]3CC[C@@H](CCCCCCC[C@@H](O)CC4=C[C@H](C)OC4=O)O3)OCO2)O1 [Compound 21, 16,19-Formaldehyde acetal derivative of bullatanocin] | 6.5 (≈ 9.99 nM) | 222 (≈ 341 nM) | 11.3 | –
CCCCCCCCCCCCC(O)C1CCC(C(O)CCC(O)C2CCC(CCCCCC(O)CC3=CC(C)OC3=O)O2)O1 (stereo not drawn) [Compound 22, C-18/21-cis-gigantecin] | – | – | – | LC50 ([1]; Table 12): 249 ng/mL (≈ 390 nM)
CCCCCCCCCC[C@H](O)[C@H]1CC[C@H]([C@H]2CC[C@@H]([C@@H]3CC[C@@H](CCCCCCC[C@@H]4CC(CC(C)=O)C(=O)O4)O3)OCO2)O1 (stereo partly drawn) [Compound 27, 16,19-Formaldehyde acetal derivatives of (2,4-cis and trans)-bullatalicinones] | 38 (≈ 58.4 nM) | 63.9 (≈ 98.2 nM) | 20.5 | –
CCCCCCCCCCCC/C=C\CCC(O)C(O)CCC(O)C1CCC(CCCCCC(O)CC2=CC(C)OC2=O)O1 (centres unmarked) [Compound 28, Gigantetronenin, reference compound] | – | – | – | LC50 ([1]; Table 12): 10400 ng/mL (≈ 16700 nM); IC50 [3, 7]: 1.49e-05 ng/mL (≈ 2.39e-05 nM)
CCCCCCCCCCCC[C@@H](O)[C@H]1CC[C@H]([C@H](O)CC[C@H](O)[C@@H]2CC[C@@H](CCCCC[C@@H](O)CC3=C[C@H](C)OC3=O)O2)O1 [Compound 29, Gigantecin] | – | – | – | LC50 ([1]; Table 12): 34.4 ng/mL (≈ 53.8 nM); IC50 ([2]; read-out: A-549 LC50): < 10 ng/mL; IC50 [3, 7]: 0.1 ng/mL (≈ 0.157 nM)
C=C(C)[C@H]1Cc2c(ccc3c2O[C@@H]2COc4cc(OC)c(OC)cc4[C@@H]2C3=O)O1 [Rotenone, rotenone, reference compound] | – | – | 34.8 | LC50 [1]: 12.3 ng/mL (≈ 31.2 nM)
